# Experimental data taken from PMC11359702, “Synthesis and Biochemical Evaluation of Ethanoanthracenes and Related Compounds: Antiproliferative and Pro-Apoptotic Effects in Chronic Lymphocytic Leukemia (CLL)” (Pharmaceuticals, 2024).
# Like-named read-outs stand apart in the source and are kept apart here.
# Tests used:
# HG-3 cells [1] = settings: 10 µM
# PGA-1 cells [2] = settings: 10 µM
# SR = test: NCI-60 five-dose assay; assay type: cell-based, human
# SF295 = test: NCI-60 five-dose assay; assay type: cell-based; settings: Homo sapiens, SF-295
# Description: (§1) A number of our most promising compounds identified through preliminary cell viability testing (23c, 23d, 23f, 23h, 23l, 23m, 23n, 23o, 24f, 24l, 25n and 26n) were selected for NCI drug screening in the 60-cell-line panel. The panel includes nine subcategories based on cancer tissue types, which include leukemia, ovarian, central nervous system, breast, lung, prostate, skin, renal and colon cancer. The compounds were initially assessed in a one-dose assay at a fixed treatment concentration of 10 µM. The compounds selected for further investigation were progressed to a five-dose assay across the concentration ranges of 0.01, 0.1, 1, 10 and 100 µM [72]. The endpoints assessed in the screening protocol were GI50, TGI and LC50 [72].
# T-47D = test: NCI-60 five-dose assay; assay type: cell-based; settings: Homo sapiens, T47D
# Description: as §1
# PGA-1 cells [3] = test: LDH cytotoxicity assay (CytoTox 96); assay type: cell-based; settings: 24 h
# From the text: (§2) The lactate dehydrogenase (LDH) assay is used to assess the membrane integrity of cells as a function of the cytoplasmic LDH released. The loss of cell membrane integrity (due to cytotoxic insult) is detectable through LDH release into the cell growth medium. The assay is initiated via the reduction in cellular co-factor NAD^+ to NADH catalyzed via the LDH enzyme. Newly formed NADH catalyzes the acidic reduction in iodonitrotetrazolium chloride (INT) to the highly colored formazan (red) (mediated via the diaphorase enzyme). […] At the 10-µM treatment concentration, mild to moderate cytotoxicity (19–47%) was observed. […] Cytotoxicity remained low to mild at 1 µM (4–18%) with 23a displaying the lowest LDH release (4%).
# (§3) Following the treatment of the HG-3 and PGA-1 cells at 10 µM for 24 hr, the amount of LDH released was determined using an LDH assay kit from Promega (G1780). Cell lysis solution = 100% cell lysis and LDH release). Data are presented as % cell death at a concentration of 10 µM. Cells were treated with ethanoanthracene compounds 20a, 20f, 23a and 25n (1 µM and 10 µM) for 24 h. Values are shown as the mean of three independent experiments.
# (§4) The cytotoxicity of the selected compounds 20a, 20f, 23a and 25n was determined using the CytoTox 96 non-radioactive cytotoxicity assay (Promega Corporation; 2800 Woods Hollow Road, Madison, WI, USA). CLL cells HG-3 and PGA-1 were incubated for 24 h and then treated with the selected compounds 20a, 20f, 23a and 25n at 10-µM and 1-µM concentrations, following the protocol outlined above in the cell viability assay. After 24 h, the lysis solution (10×) (20 µL) was added, and the cells were incubated for a further 1 h to ensure complete cell death. Supernatant (50 µL) was removed from each well and transferred to a clean 96-well plate. “Substrate mix” (50 µL) was added, and the plate was stored in the dark at 20 °C for 30 min. “Stop solution” (50 µL) was added to each well, and the absorbance at 490 nm was recorded using a Dynatech MR5000 plate reader; the % cell death was determined relative to the control cell lysis solution.
# HG-3 cells [4] = test: LDH cytotoxicity assay (CytoTox 96); assay type: cell-based; settings: HG-3, 10 µM, 24 h, lysis solution = 100%
# From the text: as §2, §3, §4
# [5] = HPLC stability study in phosphate buffers; assay type: physicochemical; settings: for remaining at 24 h, 14.6 µg/mL / half-life at 14.6 µg/mL: phosphate buffer, 37 °C; for remaining at 24 h, 14.6 µg/mL: HPLC
# Procedure, shortened: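 Compound stock (5 mg in 10 mL 80:20 acetonitrile–water) added to phosphate buffers at pH 4, 7.4 and 9 and held at 37 °C. Sampled over 24 h (0 min to 24 h) and analysed by C18 HPLC with UV detection at 254 nm; single experiments.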
Structure (SMILES),cell viability (HG-3 cells [1]) [%],cell viability (PGA-1 cells [2]) [%],GI50 (SR) [nM],GI50 (SR; Homo sapiens) [nM],GI50 (SF295) [nM],GI50 (T-47D) [nM],"LDH release (cytotoxicity, % cell death) (PGA-1 cells [3]; PGA-1, 10 µM) [%]","LDH release (cytotoxicity, % cell death) (HG-3 cells [4]) [%]","recovery at 24 h ([5]; over the pH range studied (pH 4, 7.4 and 9)) [%]","remaining at 24 h, 14.6 µg/mL ([5]; pH 4 buffer, read-out: % remaining 24 h pH 4) [%]","half-life at 14.6 µg/mL ([5]; pH 4 buffer, read-out: Half-life pH 4 (converted)) [h]","remaining at 24 h, 14.6 µg/mL ([5]; pH 7.4 buffer, read-out: % remaining 24 h pH 7.4) [%]","half-life at 14.6 µg/mL ([5]; pH 7.4 buffer, read-out: Half-life pH 7.4 (converted)) [h]","remaining at 24 h, 14.6 µg/mL ([5]; pH 9 buffer, read-out: % remaining 24 h pH 9) [%]","half-life at 14.6 µg/mL ([5]; pH 9 buffer, read-out: Half-life pH 9 (converted)) [h]","LDH release (cytotoxicity, % cell death) (PGA-1 cells [3]; PGA-1, 1 µM) [%]"
"O=C(/C=C/C12c3ccccc3C(c3ccccc31)C1C(=O)NC(=O)C12)c1ccc(Cl)cc1 (racemic) [Compound 23l, (E)-9-(3-(4-Chlorophenyl)-3-oxoprop-1-en-1-yl)-9,10-dihydro-9,10-[3,4]epipyrroloanthracene-12,14-dione]",0.7,5,2150,–,–,–,–,–,–,–,–,–,–,–,–,–
"O=C(C=CC12c3ccccc3C(c3ccccc31)C1C(=O)N(c3ccc(Cl)cc3)C(=O)C12)c1ccccn1 (stereo not shown) [Compound 25n, (E)-13-(4-Chlorophenyl)-9-(3-oxo-3-(pyridin-2-yl)prop-1-en-1-yl)-9,10-dihydro-9,10-[3,4]epipyrroloanthracene-12,14-dione]",–,–,284,280,379,312,15,47,–,–,–,–,–,–,–,–
"O=C(C=CC12c3ccccc3C(c3ccccc31)C1C(=O)NC(=O)C12)c1ccc(Br)cc1 (stereo not shown) [Compound 23a, 9-(E)-3-(4-Bromophenyl)-3-oxoprop-1-en-1-yl)-9,10-dihydro-9,10-[3,4]epipyrroloanthracene-12,14-dione]",–,–,–,–,–,–,23,25,< 50,3.12,13.3,1.38,~7.5,0.48,~7.5,4
